As usually defined, the IC50 is the concentration at which inhibition is half-maximal. A high value points to weaker potency.

A value given as a limit tells only on which side of the number the result lay.

These results are taken from ChEMBL document CHEMBL1152084 (Bioorg Med Chem Lett, 1997).

In test [1] the target is Platelet-derived growth factor receptor beta (Rattus norvegicus, UniProt Q05030). Kind of test: Inhibition of PDGF-BB induced PDGF-B receptor autophosphorylation in rat mesangial cells. It counts as functional, cell-based.
The target of test [2] is Epidermal growth factor receptor (Homo sapiens, UniProt P00533). Briefly: Inhibition of epidermal growth factor receptor (EGF-R) autophosphorylation in A431 cells. It counts as functional, cell-based, A-431.
Another test has as its target Protein kinase C (PKC). Briefly: Inhibition of Protein kinase C. It counts as protein assay.
Test [3] addresses Mitogen-activated protein kinase; ERK1/ERK2 (Homo sapiens, UniProt P27361+P28482). Briefly: Inhibition of Mitogen-activated protein kinase. It counts as protein assay.
Test [4] addresses Proto-oncogene tyrosine-protein kinase Src (Homo sapiens, UniProt P12931). Briefly: Inhibition of c-SRC.
The target of test [5] is Cyclin-dependent kinase 1 (Homo sapiens, UniProt P06493). Briefly: Inhibition of Cdc2.
Test [6] addresses cAMP-dependent protein kinase (PKA) (Homo sapiens, UniProt P22694+P17612+P22612). Kind of test: Inhibition of Protein kinase A. It counts as protein assay.

Chain of Epidermal growth factor receptor (P00533 whole entry): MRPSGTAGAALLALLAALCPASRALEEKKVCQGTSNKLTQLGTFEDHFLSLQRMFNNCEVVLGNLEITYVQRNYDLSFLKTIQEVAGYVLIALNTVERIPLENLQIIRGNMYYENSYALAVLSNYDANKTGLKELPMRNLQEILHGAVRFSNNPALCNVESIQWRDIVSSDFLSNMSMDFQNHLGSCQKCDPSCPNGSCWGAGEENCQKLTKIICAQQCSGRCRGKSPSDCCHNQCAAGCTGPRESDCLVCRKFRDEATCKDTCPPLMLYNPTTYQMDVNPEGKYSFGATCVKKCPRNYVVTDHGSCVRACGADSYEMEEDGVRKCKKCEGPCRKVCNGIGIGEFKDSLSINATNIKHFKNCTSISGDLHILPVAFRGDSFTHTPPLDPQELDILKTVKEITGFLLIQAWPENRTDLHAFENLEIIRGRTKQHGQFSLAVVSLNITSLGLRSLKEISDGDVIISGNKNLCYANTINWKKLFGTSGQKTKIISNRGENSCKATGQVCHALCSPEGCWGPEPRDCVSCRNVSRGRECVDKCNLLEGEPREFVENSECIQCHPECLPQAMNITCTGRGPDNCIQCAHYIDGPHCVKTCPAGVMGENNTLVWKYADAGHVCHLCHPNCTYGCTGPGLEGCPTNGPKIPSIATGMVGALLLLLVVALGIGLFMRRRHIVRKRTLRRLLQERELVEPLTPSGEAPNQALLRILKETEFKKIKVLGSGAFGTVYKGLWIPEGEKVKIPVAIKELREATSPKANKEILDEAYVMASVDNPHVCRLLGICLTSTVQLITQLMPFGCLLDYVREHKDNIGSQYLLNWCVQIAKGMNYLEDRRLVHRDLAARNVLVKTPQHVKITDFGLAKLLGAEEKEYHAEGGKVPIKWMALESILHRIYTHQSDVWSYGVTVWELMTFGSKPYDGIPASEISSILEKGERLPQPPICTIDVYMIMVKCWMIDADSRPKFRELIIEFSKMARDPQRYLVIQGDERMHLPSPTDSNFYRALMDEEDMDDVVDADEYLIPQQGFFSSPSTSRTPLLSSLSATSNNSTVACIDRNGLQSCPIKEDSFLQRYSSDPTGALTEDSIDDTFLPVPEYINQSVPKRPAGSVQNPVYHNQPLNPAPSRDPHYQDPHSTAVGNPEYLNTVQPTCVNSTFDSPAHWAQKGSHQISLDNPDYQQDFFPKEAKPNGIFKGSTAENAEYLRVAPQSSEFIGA
Chain of Platelet-derived growth factor receptor beta (Q05030 whole entry): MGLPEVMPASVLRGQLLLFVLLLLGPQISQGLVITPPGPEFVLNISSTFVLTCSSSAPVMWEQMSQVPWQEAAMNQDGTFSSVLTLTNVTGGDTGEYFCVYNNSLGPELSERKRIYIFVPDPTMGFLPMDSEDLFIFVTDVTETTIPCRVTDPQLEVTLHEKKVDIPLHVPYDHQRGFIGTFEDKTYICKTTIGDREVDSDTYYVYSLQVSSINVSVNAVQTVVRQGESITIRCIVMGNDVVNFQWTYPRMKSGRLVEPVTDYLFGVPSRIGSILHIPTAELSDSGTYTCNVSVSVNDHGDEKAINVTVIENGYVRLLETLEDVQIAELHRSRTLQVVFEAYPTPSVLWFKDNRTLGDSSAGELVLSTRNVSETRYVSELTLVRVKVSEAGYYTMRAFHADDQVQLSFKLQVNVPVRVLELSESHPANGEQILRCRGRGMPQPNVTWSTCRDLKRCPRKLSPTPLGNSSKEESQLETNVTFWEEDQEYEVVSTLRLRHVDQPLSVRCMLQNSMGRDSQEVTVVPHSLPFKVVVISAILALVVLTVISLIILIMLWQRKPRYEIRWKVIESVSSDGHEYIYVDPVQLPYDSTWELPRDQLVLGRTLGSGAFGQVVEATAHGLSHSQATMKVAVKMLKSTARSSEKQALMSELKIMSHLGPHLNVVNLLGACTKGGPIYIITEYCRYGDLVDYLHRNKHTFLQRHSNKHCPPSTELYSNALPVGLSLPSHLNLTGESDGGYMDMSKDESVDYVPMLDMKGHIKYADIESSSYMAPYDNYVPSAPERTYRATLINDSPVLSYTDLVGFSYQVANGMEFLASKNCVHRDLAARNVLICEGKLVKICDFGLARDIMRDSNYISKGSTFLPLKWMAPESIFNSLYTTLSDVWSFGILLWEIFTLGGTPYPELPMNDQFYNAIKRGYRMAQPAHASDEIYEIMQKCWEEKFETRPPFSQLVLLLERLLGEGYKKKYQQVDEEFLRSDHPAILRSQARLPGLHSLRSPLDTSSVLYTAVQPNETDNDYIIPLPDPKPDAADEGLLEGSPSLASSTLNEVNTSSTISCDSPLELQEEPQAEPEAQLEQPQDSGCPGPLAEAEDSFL
Chain of Cyclin-dependent kinase 1 (P06493 whole entry): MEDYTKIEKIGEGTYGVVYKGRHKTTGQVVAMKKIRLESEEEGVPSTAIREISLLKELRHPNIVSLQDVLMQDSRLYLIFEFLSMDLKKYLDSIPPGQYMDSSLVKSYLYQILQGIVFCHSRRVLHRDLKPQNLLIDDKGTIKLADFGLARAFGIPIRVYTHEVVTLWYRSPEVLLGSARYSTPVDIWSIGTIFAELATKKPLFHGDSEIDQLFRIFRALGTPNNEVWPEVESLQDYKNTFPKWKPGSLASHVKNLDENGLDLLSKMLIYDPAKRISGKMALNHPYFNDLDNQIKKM
Chain of Proto-oncogene tyrosine-protein kinase Src (P12931 2-536 limits assumed): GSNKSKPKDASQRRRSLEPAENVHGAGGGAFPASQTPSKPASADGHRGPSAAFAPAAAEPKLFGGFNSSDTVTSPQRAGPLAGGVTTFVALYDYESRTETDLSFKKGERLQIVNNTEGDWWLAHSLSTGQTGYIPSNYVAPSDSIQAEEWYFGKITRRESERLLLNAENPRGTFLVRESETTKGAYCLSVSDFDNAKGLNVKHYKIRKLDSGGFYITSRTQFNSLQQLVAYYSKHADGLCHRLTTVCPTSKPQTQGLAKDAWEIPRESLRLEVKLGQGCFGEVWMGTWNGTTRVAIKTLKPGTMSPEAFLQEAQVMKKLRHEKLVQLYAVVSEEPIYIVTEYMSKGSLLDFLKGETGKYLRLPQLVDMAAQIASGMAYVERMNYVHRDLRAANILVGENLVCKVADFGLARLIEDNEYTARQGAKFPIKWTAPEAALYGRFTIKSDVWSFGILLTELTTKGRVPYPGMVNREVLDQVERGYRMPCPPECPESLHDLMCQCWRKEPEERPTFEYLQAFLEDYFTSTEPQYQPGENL

`COc1cc2nccc(Oc3cccc(N)c3)c2cc1OC` yielded an IC50 in test [1] of 1.7 µM. Molecule `COc1cc2nccc(Nc3cccc(Br)c3)c2cc1OC` came in with an IC50 in test [1] of 21.5 µM. In the case of `COc1cc2ncnc(Oc3cccc(Br)c3)c2cc1OC`, the IC50 turned out to be 14.8 µM in test [1] and 0.07 µM in test [2].

Take `COc1cc(OC)cc(Oc2ccnc3cc(OC)c(OC)cc23)c1`: the IC50 in test [1] came to 5.5 µM. With `COc1cc2nccc(Oc3cccc(C)c3)c2cc1OC`, the IC50 in test [1] was found to be 6.9 µM. Turning to `COc1ccc(Nc2ccnc3cc(OC)c(OC)cc23)cc1OC`, the figures for the IC50 in test [1] and in test [2] were 2.6 µM and 80.5 µM, respectively. Regarding `COc1cc2nccc(Oc3ccccc3OC)c2cc1OC`, it took 0.6 µM to reach half-maximal inhibition in test [1] (IC50).

Regarding `COc1ccc(Oc2ncnc3cc(OC)c(OC)cc23)cc1OC`, the IC50 in test [1] was 0.57 µM; in test [2], over 100 µM. In test [1], `COc1cc2nccc(Oc3ccccc3)c2cc1OC` showed an IC50 of 0.76 µM. In test [1], `COc1cc2nccc(Oc3cccc(F)c3)c2cc1OC` had an IC50 of 1.5 µM. On to `COc1cc2nccc(Oc3cccc([N+](=O)[O-])c3)c2cc1OC`, for which the IC50 in test [1] is 0.7 µM.

On to `COc1ccc(Nc2ncnc3cc(OC)c(OC)cc23)cc1OC`, for which the half-inhibitory concentration (IC50) turned out to be 4.5 µM in test [1] and 2.8 µM in test [2]. As for `CCc1cccc(Oc2ccnc3cc(OC)c(OC)cc23)c1`, inhibition in test [1] was half-maximal at 8.4 µM (IC50).

Regarding `COc1cc2nccc(Oc3cccc(O)c3)c2cc1OC`, in test [1], the half-maximal inhibitory concentration (IC50) turned out to be 0.56 µM. In the case of `COc1cc2nccc(Oc3c(OC)cccc3OC)c2cc1OC`, the midpoint of inhibition in test [1], the IC50, lay at 69.3 µM. In the case of `COc1ccc(Oc2ccnc3cc(OC)c(OC)cc23)cc1`, the IC50 in test [1] worked out at 1.9 µM. Same read-out and setting: then `CCOc1cccc(Oc2ccnc3cc(OC)c(OC)cc23)c1`, with 12.9 µM. On to `COc1ccc(Oc2ccnc3cc(OC)c(OC)cc23)cc1OC`, for which the IC50 at Protein kinase C (PKC) was over 20 µM; in test [3], over 10 µM; in test [4], over 10 µM; in test [5], over 10 µM; in test [6] it was over 10 µM. `COc1cc2nccc(Oc3cccc(Br)c3)c2cc1OC`: the IC50 came to 8.4 µM in test [1] and 2.5 µM in test [2].

In turn, `COc1cc2nccc(Oc3cccc(OC)c3OC)c2cc1OC` displayed an IC50 in test [1] of 4.4 µM.
